From patent US20130315828A1, “KIT AND METHOD OF USE OF TARGETING PEPTIDE FOR DIAGNOSIS AND THERAPY OF CANCER” (NATIONAL TSING HUA UNIVERSITY, priority 2012, published 2013) come the findings set out here.

The test system of one assay is neoplastic lung tissues. Briefly: IHC targeting of GBP in lung cancer tissue arrays, overall. It is filed as binding, human. On the procedure: The 5 μm slides were dried in the oven at 60° C. for 1 h. Briefly, the sections were deparaffinized with xylene (J. T. Baker Phillipsburg, N) for 15 min and rehydrated in graded ethanol solutions. Endogenous peroxidase activity was blocked by incubating the sections in a 3% hydrogen peroxide solution in distilled water for 10 min. The sections were then washed and placed in phosphate buffer for 10 min. Antigen retrieval was achieved by heat treatment using 10 mM citrate buffer solution pH 6.0 or by 0.1% trypsin treatment for 5 min (for 10E4). After the slides were blocked in 3% BSA solution for 1 h and incubated with 2 μM eGFP-GBP fusion protein for 2 h (for eGFP), these sections were then incubated with 10E4 antibody (1:200 dilution) and eGFP antibody (1:200 dilution) at 4° C. overnight, individually. […]
Every tumor was given a score according to the intensity of the nuclear or cytoplasmic staining (no staining=0; weak staining=1; moderate staining=2; strong staining=3) and the extent of stained cells (0-10%=0; 11-50%=1; 51-80%=2; 81-100%=3). The final immunoreactive score was determined by multiplying the intensity and extent of positivity scores of stained cells, with the minimum score of 0 and a maximum score of 9.
Specimen scores from 61 cases of lung cancers from tissue arrays were used for quantitative evaluation of IHC data. […]

Assay [1] is described as follows: Fluorophore-assisted carbohydrate electrophoresis (FACE), GBP binding to glycosaminoglycans. Particulars: LMWH, CS, DS; PBS, 25° C., 15 min; FIG. 1A. On the procedure:
(§1) Fluorophore-assisted carbohydrate electrophoresis (FACE) is carried out by pre-mixing (A) AMAC-labeled LMWH, chondroitin sulfate (CS), and dermatan sulfate (DS) and (B) AMAC-labeled LMWH, de-2-O-sulfated heparin, de-6-O-sulfated heparin, and N-acetyl-de-O-sulfated heparin (0.33 nmol) with indicated fold molar excess of GBP before incubated with or without peptide in PBS at 25° C. for 15 min. The reaction products are separated on a 1% agarose gel. The reacted probe and protein are shown above the gel. Relative intensity (%) of free probe and the unlabeled competitors are shown at the bottom of the gel.
(§2) Carbohydrate were labeled with 2-aminoacridone (AMAC) (Invitrogen, catalog no. A6289) according to previous study (Calabro, A., Benavides, M., Tammi, M., Hascall, V. C., and Midura, R. J. (2000) Microanalysis of enzyme digests of hyaluronan and chondroitin/dermatan sulfate by fluorophore-assisted carbohydrate electrophoresis (FACE), Glycobiology 10, 273-281). Briefly, fifty micrograms GAGs were dried by freeze-drying machine, and then incubated with 40 μl 1.25 M 2-aminoacridone (AMAC)/85% DMSO/15% acetic acid at 25° C. for 15 min. Forty microliters of 1.25 M sodium cyanoborohydride (NaBH3CN) was added and incubated at 37° C. for 16 h. Afterwards, 720 μl 99% ice-cold ethanol was added at −20° C. for 15 min, then centrifugation at 11,000×g at 4° C. for 5 min. […]

The nature of assay [2]: FACE, GBP binding to heparin and desulfated heparins. The following applies: LMWH and desulfated heparins; FIG. 1B. As to the method:
as §1, §2

Consider NYRWRCKNQN [GBP], for which the “GBP recognition, aggressive versus early stage of cancer” value in the assay with neoplastic lung tissues is reported as “higher recognition toward more aggressive tumor progression”. Also, the “GBP binding to glycosaminoglycans (FACE)” value in assay [1] was “probed universal glycosaminoglycans including low molecular weight heparin, chondroitin sulfate and dermatan sulfate”. In assay [2], the “GBP recognition of sulfated HS / heparin derivatives (FACE)” value was “identified sulfated HS, especially preferring O-sulfated heparin”.
